# Reference: ChEMBL document CHEMBL5338818, “Discovery of the First Potent, Selective, and In Vivo Efficacious Polo-like Kinase 4 Proteolysis Targeting Chimera Degrader for the Treatment of TRIM37-Amplified Breast Cancer” (J Med Chem, 2023)
# Active and inactive are the calls of the source. The rule behind the calls is not given here.
# Key:
# [1] = target: T1, Protein cereblon/Serine/threonine-protein kinase PLK4 (Homo sapiens, UniProt O00444+Q96SW2); assay: Protac activity at CRBN/PLK4 in human MCF7 cells at 1 to 10 nM by Western blot analysis; format: cell-based; conditions: dose 1-10 nM, time 6-72 hrs, TDE = time-dependent effect
# T1 sequence (Q96SW2 whole entry, looked up, one chain of several): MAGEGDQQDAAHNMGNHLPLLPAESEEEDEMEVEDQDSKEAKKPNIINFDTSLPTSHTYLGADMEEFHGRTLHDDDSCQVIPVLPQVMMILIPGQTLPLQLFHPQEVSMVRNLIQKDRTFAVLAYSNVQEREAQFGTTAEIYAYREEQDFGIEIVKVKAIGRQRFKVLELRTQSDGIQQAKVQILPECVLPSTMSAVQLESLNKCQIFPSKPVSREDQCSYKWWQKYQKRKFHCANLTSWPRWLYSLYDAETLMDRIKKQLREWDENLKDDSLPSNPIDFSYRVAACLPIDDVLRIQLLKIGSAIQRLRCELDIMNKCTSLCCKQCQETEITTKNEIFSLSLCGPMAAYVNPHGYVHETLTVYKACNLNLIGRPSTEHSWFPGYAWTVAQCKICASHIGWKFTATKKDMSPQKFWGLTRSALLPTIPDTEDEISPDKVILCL
# [2] = system: MCF7; assay: Antiproliferative activity against human MCF7 cells incubated for 5 days by CCK-8 assay; conditions: MCF7, 120 h
# [3] = target: T2, Serine/threonine-protein kinase PLK4 (Homo sapiens, UniProt O00444); assay: Inhibition of PLK4 (unknown origin) incubated for 1 hr in presence of kinase tracer 236 by FRET assay
# T2 sequence (O00444 whole entry): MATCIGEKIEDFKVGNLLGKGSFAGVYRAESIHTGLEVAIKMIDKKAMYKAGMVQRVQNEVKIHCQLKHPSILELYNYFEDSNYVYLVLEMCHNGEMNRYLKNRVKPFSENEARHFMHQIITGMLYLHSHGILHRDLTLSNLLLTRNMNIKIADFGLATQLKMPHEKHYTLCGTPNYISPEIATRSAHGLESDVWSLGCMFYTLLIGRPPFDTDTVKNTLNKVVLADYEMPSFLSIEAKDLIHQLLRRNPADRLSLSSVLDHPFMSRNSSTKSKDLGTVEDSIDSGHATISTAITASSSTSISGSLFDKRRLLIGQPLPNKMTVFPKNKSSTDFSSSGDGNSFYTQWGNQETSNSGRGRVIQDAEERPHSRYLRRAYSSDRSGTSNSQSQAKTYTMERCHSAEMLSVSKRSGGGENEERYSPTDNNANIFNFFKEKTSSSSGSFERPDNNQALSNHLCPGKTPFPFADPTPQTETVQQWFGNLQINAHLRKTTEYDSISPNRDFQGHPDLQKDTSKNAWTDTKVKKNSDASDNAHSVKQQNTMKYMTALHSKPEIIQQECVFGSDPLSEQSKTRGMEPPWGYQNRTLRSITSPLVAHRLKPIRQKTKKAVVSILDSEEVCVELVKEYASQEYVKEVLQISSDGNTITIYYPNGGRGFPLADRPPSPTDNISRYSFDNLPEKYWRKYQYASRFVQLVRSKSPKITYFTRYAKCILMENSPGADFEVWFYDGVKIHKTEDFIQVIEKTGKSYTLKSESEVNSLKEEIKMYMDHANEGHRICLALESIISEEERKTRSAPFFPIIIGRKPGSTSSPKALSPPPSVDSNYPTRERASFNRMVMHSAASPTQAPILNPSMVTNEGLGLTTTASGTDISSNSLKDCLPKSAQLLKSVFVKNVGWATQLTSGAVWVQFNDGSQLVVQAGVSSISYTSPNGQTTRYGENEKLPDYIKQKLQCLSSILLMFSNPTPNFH
# [4] = target: T1, Protein cereblon/Serine/threonine-protein kinase PLK4; assay: Protac activity at CRBN/PLK4 in human MCF7 cells at 0.1 uM incubated for 48 hrs by Western blot analysis; format: cell-based
# [5] = target: T1, Protein cereblon/Serine/threonine-protein kinase PLK4; assay: Protac activity at CRBN/PLK4 in human MCF7 cells at 1 uM incubated for 48 hrs by Western blot analysis; format: cell-based
# [6] = target: T1, Protein cereblon/Serine/threonine-protein kinase PLK4; assay: Protac activity at CRBN/PLK4 in human MCF7 cells at 10 uM incubated for 48 hrs by Western blot analysis; format: cell-based
# [7] = target: T1, Protein cereblon/Serine/threonine-protein kinase PLK4; assay: Protac activity at CRBN/PLK4 in human MCF7 cells at 10 uM by Western blot analysis; format: cell-based
Activity [1],IC50 [2] [nM],IC50 [3] [nM],Activity [4] [%],Activity [5] [%],Activity [6] [%],Activity [7],Structure (SMILES)
Tde,2150,1.5,44.6,53.1,65.8,,Cc1cc(Nc2nc(NCc3ccc(F)cc3F)nc3c2cnn3C2CCN(C(=O)CCCOc3ccc4c(c3)C(=O)N(C3CCC(=O)NC3=O)C4=O)CC2)n[nH]1 (configuration not stated)
,,,,,,inactive,Cc1cc(Nc2nc(NCc3ccc(F)cc3F)nc3c2cnn3C2CCN(C(=O)C3CCN(c4ccc5c(c4)C(=O)N(C4CCC(=O)N(C)C4=O)C5=O)CC3)CC2)n[nH]1 (configuration not stated)
